The values that follow come from patent publication US12637478B2, “Compound, preparation method thereof, and antibiotic composition comprising same” (priority 2020, dated 2026).

For assay [1], the system named is S. aureus^MS. The assay is described as follows: MIC by broth microdilution (aerobic pathogens), test strain 1. In kind it is cell-based. To be noted: Staphylococcus aureus; test strain 1, S. aureus^MS; read-out: MIC. The essentials: (§1)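 Broth microdilution per CLSI M7-A5 standards was used. MIC was taken as the lowest antibiotic concentration inhibiting bacterial growth by 90% relative to the untreated growth control.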
A general note: Broth dilution looks for growth in wells or tubes with falling amounts of substance.

Assay [2] concerns S. aureus^MS. The assay is described as follows: MIC by broth microdilution (aerobic pathogens), test strain 2. In kind it is cell-based. To be noted: Staphylococcus aureus; test strain 2, S. aureus^MS; read-out: MIC. The procedure, abridged: as §1
In a further assay the test system is S. aureus^VR. The assay is described as follows: MIC by broth microdilution (aerobic pathogens), test strain 4. It counts as cell-based, Vancomycin resistant Staphylococcus aureus. To be noted: Staphylococcus aureus; test strain 4, S. aureus^VR (vancomycin resistant); read-out: MIC. The essentials:
as §1

A further assay deals with S. epidermis. The assay is described as follows: MIC by broth microdilution (aerobic pathogens), test strain 5. In kind it is cell-based. To be noted: Staphylococcus epidermidis. The procedure, abridged: as §1
Another assay relates to S. epidermis^MR. The assay is described as follows: MIC by broth microdilution (aerobic pathogens), test strain 6. In kind it is cell-based, Methicillin resistant Staphylococcus epidermidis. To be noted: Staphylococcus epidermidis; test strain 6, S. epidermis^MR (methicillin resistant); read-out: MIC. The procedure, abridged:
as §1

The next assay concerns E. faecalis. The assay is described as follows: MIC by broth microdilution (aerobic pathogens), test strain 7. It counts as cell-based. The note with it: Enterococcus faecalis. The essentials:
as §1

A further assay has as its system E. faecalis^VanA. The assay is described as follows: MIC by broth microdilution (aerobic pathogens), test strain 8. In kind it is cell-based, Vancomycin resistant Enterococcus faecalis. The note with it: Enterococcus faecalis; test strain 8, E. faecalis^VanA (vancomycin resistant); read-out: MIC. The essentials:
as §1

For a further assay, the system named is E. faecalis^LinR. The assay is described as follows: MIC by broth microdilution (aerobic pathogens), test strain 9. It counts as cell-based, Linezolid resistant Enterococcus faecalis. To be noted: Enterococcus faecalis; test strain 9, E. faecalis^LinR (linezolid resistant); read-out: MIC. The essentials: as §1
The next assay relates to E. faecium. The assay is described as follows: MIC by broth microdilution (aerobic pathogens), test strain 10. It counts as cell-based. To be noted: Enterococcus faecium; test strain 10, E. faecium; read-out: MIC. The essentials: as §1
In a further assay the test system is E. faecium^LinR. The assay is described as follows: MIC by broth microdilution (aerobic pathogens), test strain 12. In kind it is cell-based, Linezolid resistant Enterococcus faecium. To be noted: Enterococcus faecium; test strain 12, E. faecium^LinR (linezolid resistant); read-out: MIC. The procedure, abridged:
as §1

Another assay relates to C. difficile 161. The assay is described as follows: MIC by agar dilution against Clostridioides difficile, test strain 16. It counts as cell-based. The note with it: test strain 16, C. difficile 161, anaerobic, agar dilution, read-out: MIC. In general terms: In agar dilution, organisms are placed on agar that contains the substance at set levels.
The subject of a further assay is C. difficile 173. The assay is described as follows: MIC by agar dilution against Clostridioides difficile, test strain 17. The note with it: test strain 17, C. difficile 173, anaerobic, agar dilution, read-out: MIC. It counts as cell-based.
For another assay, the system named is C. difficile 174. The assay is described as follows: MIC by agar dilution against Clostridioides difficile, test strain 18. It counts as cell-based. The note with it: test strain 18, C. difficile 174, anaerobic, agar dilution, read-out: MIC.
For the next assay, the system named is M. tuberculosis. The assay is described as follows: MIC by resazurin (REMA) assay against Mycobacterium, test strain 20. In kind it is cell-based. As to the method: (§2) In order to test the antibacterial activity, the medium of Mycobacterium cultured to late log phase was diluted so as to be 4.0×10^5 cells/well in Middlebrook 7H10 agar medium (Difco) supplemented with 10% oleic acid, albumin, dextrose, catalase (OADC, Becton Dickinson) and 0.05% Tween 80 (Sigma Aldrich) and was dispensed into a 96-well plate. The compounds were treated so that DMSO was 1%, and after 3 days, a 0.025% resazurin (REMA) solution was dispensed, and the growth of the bacteria was confirmed after culturing. The MIC value was measured for the antibacterial activity through resazurin (excitation 530 nm, emission 590 nm).
A general note: The colour change of resazurin is a common sign of viable cells or microbes.

A further assay deals with S. aureus^MR. The assay is described as follows: MIC by broth microdilution (aerobic pathogens), test strain 3. In kind it is cell-based, Methicillin resistant Staphylococcus aureus. The note with it: Staphylococcus aureus; test strain 3, S. aureus^MR (methicillin resistant); read-out: MIC. Here is the method:
The antibacterial activity of the compounds of Examples 1 to 48 of the present invention against aerobic pathogens were evaluated by measuring the minimum concentration of the antibiotic capable of inhibiting bacterial growth by 90% compared to the growth of the non-drug treated control group. MIC was measured by the broth microdilution method based on CLSI standards [Reference: Clinical and Laboratory Standards Institute Document. (2000) Methods for Dilution Antimicrobial Susceptibility Test for Bacteria that Grow Aerobically-Fifth Edition: M7-A5. CLSI, Villanova, PA].
All 13 strains such as methicillin susceptible Staphylococcus aureus (MSSA), methicillin resistant Staphylococcus aureus (MRSA), Vancomycin resistant Staphylococcus aureus (VRSA), Staphylococcus epidermidis, methicillin resistant Staphylococcus epidermidis, Enterococcus faecalis, Vancomycin resistant Enterococcus faecalis, Enterococcus faecium, Vancomycin resistant Enterococcus faecium were used.

Another assay concerns E. faecium^VRE. The assay is described as follows: MIC by broth microdilution (aerobic pathogens), test strain 11. It counts as cell-based, Vancomycin resistant Enterococcus faecium. To be noted: Enterococcus faecium; test strain 11, E. faecium^VRE (vancomycin resistant); read-out: MIC. The essentials:
as §1

In another assay the test system is C. difficile 152. The assay is described as follows: MIC by agar dilution against Clostridioides difficile, test strain 14. It counts as cell-based. The note with it: test strain 14, C. difficile 152, anaerobic, agar dilution, read-out: MIC.
Another assay has as its system C. difficile 159. The assay is described as follows: MIC by agar dilution against Clostridioides difficile, test strain 15. It counts as cell-based. The note with it: test strain 15, C. difficile 159, anaerobic, agar dilution, read-out: MIC.
The next assay relates to C. difficile 181. The assay is described as follows: MIC by agar dilution against Clostridioides difficile, test strain 19. It counts as cell-based. To be noted: test strain 19, C. difficile 181, anaerobic, agar dilution, read-out: MIC.
The next assay deals with M. avium. The assay is described as follows: MIC by resazurin (REMA) assay against Mycobacterium, test strain 21. In kind it is cell-based. As to the method:
as §2

The test system of another assay is M. intracelluare. The assay is described as follows: MIC by resazurin (REMA) assay against Mycobacterium, test strain 22. The note with it: Mycobacterium intracellulare. It counts as cell-based. Here is the method: as §2
The next assay has as its system M. abscessus. The assay is described as follows: MIC by resazurin (REMA) assay against Mycobacterium, test strain 23. It counts as cell-based. The note with it: Mycobacteroides abscessus. As to the method:
as §2

[3] abbreviates: test strain 5, S. epidermis, read-out: MIC.
[4] abbreviates: test strain 7, E. faecalis, read-out: MIC.

Converted amounts (≈) assume the structure as drawn. Like-named read-outs stand apart in the source and are kept apart here.

Turning to `C/C=C(\NC(=O)c1csc(-c2csc(-c3ccc4c(n3)-c3csc(n3)[C@H]([C@@H](C)O)NC(=O)c3csc(n3)[C@H](C(C)C)NC(=O)c3csc(n3)/C(=C/C)NC(=O)[C@H]([C@@H](C)O)NC(=O)c3csc-4n3)n2)n1)C(=O)NCCN1CCOCC1` [Compound 1], the MIC in the assay on S. aureus^MS [1] was 0.125 µg/mL (≈ 0.104 µM); in the assay with S. aureus^MS [2], 0.125 µg/mL (≈ 0.104 µM); with S. aureus^VR it was 1 µg/mL (≈ 0.834 µM); in the assay with S. epidermis (setting [3]), 0.125 µg/mL (≈ 0.104 µM); in the assay with S. epidermis^MR, 0.125 µg/mL (≈ 0.104 µM); in the assay on E. faecalis (setting [4]) it was 0.25 µg/mL (≈ 0.208 µM). For the same molecule, the MIC in the assay with E. faecalis^VanA came out at 0.125 µg/mL (≈ 0.104 µM); in the assay with E. faecalis^LinR it was 0.125 µg/mL (≈ 0.104 µM); with E. faecium, 0.5 µg/mL (≈ 0.417 µM); with E. faecium^LinR, 1 µg/mL (≈ 0.834 µM); with C. difficile 161, 0.5 µg/mL (≈ 0.417 µM); in the assay on C. difficile 173 it was 1 µg/mL (≈ 0.834 µM). The values for the MIC with C. difficile 174 and against M. tuberculosis were 0.5 µg/mL (≈ 0.417 µM) and 0.076 µg/mL (≈ 0.0634 µM), respectively.
Regarding `C/C=C(\NC(=O)c1csc(-c2csc(-c3ccc4c(n3)-c3csc(n3)[C@H]([C@@H](C)O)NC(=O)c3csc(n3)[C@H](C(C)C)NC(=O)c3csc(n3)/C(=C/C)NC(=O)[C@H]([C@@H](C)O)NC(=O)c3csc-4n3)n2)n1)C(=O)NCCn1c([N+](=O)[O-])cnc1C` [Compound 3], the MIC with S. aureus^MS [1] is 0.0625 µg/mL (≈ 0.0504 µM); in the assay on S. aureus^MS [2] it was under 0.0625 µg/mL; with S. aureus^MR, 1 µg/mL (≈ 0.807 µM); in the assay on S. aureus^VR, 0.25 µg/mL (≈ 0.202 µM); with S. epidermis (setting [3]), 0.25 µg/mL (≈ 0.202 µM); in the assay with S. epidermis^MR, 0.125 µg/mL (≈ 0.101 µM). The MIC in the assay with E. faecalis (setting [4]) is 0.0625 µg/mL (≈ 0.0504 µM); in the assay with E. faecalis^VanA, 0.125 µg/mL (≈ 0.101 µM); in the assay on E. faecalis^LinR, 0.125 µg/mL (≈ 0.101 µM); in the assay with E. faecium, 0.125 µg/mL (≈ 0.101 µM); with E. faecium^VRE, 0.25 µg/mL (≈ 0.202 µM); in the assay on E. faecium^LinR it was 0.25 µg/mL (≈ 0.202 µM). Also, the MIC in the assay with C. difficile 152 was 1 µg/mL (≈ 0.807 µM); in the assay on C. difficile 159, 1 µg/mL (≈ 0.807 µM); with C. difficile 161 it was 0.25 µg/mL (≈ 0.202 µM); with C. difficile 173, 0.5 µg/mL (≈ 0.403 µM); in the assay with C. difficile 174, 0.25 µg/mL (≈ 0.202 µM); in the assay with C. difficile 181, 0.5 µg/mL (≈ 0.403 µM). The molecule also registered an MIC in the assay with M. tuberculosis of 0.1 µg/mL (≈ 0.0807 µM).
Turning to `C/C=C1\NC(=O)[C@H]([C@@H](C)O)NC(=O)c2csc(n2)-c2ccc(-c3nc(-c4nc(C(=O)NC5(C(=O)NCCN6CCN(C)CC6)CC5)cs4)cs3)nc2-c2csc(n2)[C@H]([C@@H](C)O)NC(=O)c2csc(n2)[C@H](C(C)C)NC(=O)c2csc1n2` [Compound 4], the MIC is 0.5 µg/mL (≈ 0.412 µM) in the assay with S. aureus^MS [1]; 0.5 µg/mL (≈ 0.412 µM) in the assay on S. aureus^MS [2]; 1 µg/mL (≈ 0.825 µM) in the assay on S. aureus^MR; 1 µg/mL (≈ 0.825 µM) in the assay on S. aureus^VR; 0.25 µg/mL (≈ 0.206 µM) against S. epidermis; 0.5 µg/mL (≈ 0.412 µM) in the assay with S. epidermis^MR. Moreover, the MIC worked out at 0.25 µg/mL (≈ 0.206 µM) against E. faecalis; 0.5 µg/mL (≈ 0.412 µM) in the assay on E. faecalis^VanA; 1 µg/mL (≈ 0.825 µM) in the assay on E. faecalis^LinR; 0.5 µg/mL (≈ 0.412 µM) in the assay on E. faecium; 1 µg/mL (≈ 0.825 µM) in the assay on E. faecium^LinR; 0.115 µg/mL (≈ 0.0948 µM) with M. avium. In addition, the MIC stood at 0.143 µg/mL (≈ 0.118 µM) in the assay on M. intracelluare and 0.157 µg/mL (≈ 0.129 µM) against M. abscessus.

In general, MIC refers to the least concentration at which growth counts as inhibited.
